Data: US20140054163A1, “METHODS FOR REACTING CYSTEINE RESIDUES IN PEPTIDES AND PROTEINS” (University of George Risearch Foundation, Inc., priority 2012, published 2014)

Experiments:
[1] = Photochemical stability on irradiation in PBS, HPLC analysis; format: physicochemical; details: 0.1 mM PBS solutions irradiated separately for 12 minutes, 300 and 350 nm fluorescent lamps
Method: It is important to note that peptide 4 and NQMP-TEG (1c) are photochemically stable under these conditions. […] Obviously, NQMP 1c still forms oNQM 2c but in the absence of thiols the latter rapidly undergoes hydration back to starting materials.
0.1 mM PBS solutions of NQMP-TEG (2c) and peptide 4 were irradiated separately for 12 minutes using both 300 and 350 nm fluorescent lamps.

[2] = Aqueous solubility of NQMP derivatives; details: wholly aqueous solutions
[3] = target: T1, Papain from papaya latex (Carica papaya, UniProt P00784); test: Photochemical inhibition of papain activity by NQMP-TEG (L-BAPNA hydrolysis rate); format: biochemical; details: for Relative activity: PBS
T1 construct: from tissue; host or cells: papaya latex
T1 sequence (P00784 134-345): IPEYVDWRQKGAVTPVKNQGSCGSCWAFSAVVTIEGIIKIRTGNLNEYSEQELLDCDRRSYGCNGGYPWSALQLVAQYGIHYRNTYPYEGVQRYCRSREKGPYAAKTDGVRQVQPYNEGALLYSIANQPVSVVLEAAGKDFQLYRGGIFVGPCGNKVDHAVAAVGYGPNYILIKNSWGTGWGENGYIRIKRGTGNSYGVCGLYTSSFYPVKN
Method: (§1) Papain was activated by incubation the enzyme with 100-40 fold excess of free cysteine for 45 minutes in PBS solution. The concentration of the papain in the stock solution was determined by its […] at 280 nm (s=57600 M^−1 cm^−1) (Pace et. al., Protein Sci. 1995, 4:2411-2423). The activity of the protease was measured using N-α-benzoyl-L-arginine-p-nitroanilide (L-BAPNA). […] The formation of the latter can be followed by the rise of characteristic absorbance at 410 nm (ε=9800). Water-soluble NQMP-TEG (FIG. 13) was employed for inhibition experiments.
A PBS solution containing 1.7 μM of papain, 80 μM of cysteine and variable amounts of NQMP-TEG was irradiated for 2 minutes with 350 nm fluorescent lamps. A stock solution of BAPNA was then added to a photolysate to achieve 800 μM concentration of the substrate and rate of hydrolysis was measured (Table 5, FIG. 14).
A PBS solution containing 0.91 μM of papain, 44 μM of cysteine and 109 μM of NQMP-TEG was irradiated for 2, 3 or 4 minutes with 350 nm fluorescent lamps. A stock solution of BAPNA was then added to a photolysate to achieve 200 μM concentration of the substrate and rate of hydrolysis was measured (Table 6, FIG. 15).

[4] = target: T1, Papain from papaya latex; test: Photochemical restoration (re-activation) of NQMP-inhibited papain activity; format: biochemical; details: for Papain Activity: photolysate with inhibited papain, NQMP-TEG, cysteine plus 2-(2-(vinyloxy)ethoxy)ethanol equal to initial NQMP-TEG
Method: as §1
A sample of deactivated papain was prepared as described above. The protein was separated from low molecular weight compounds using gel filtration (Sephadex PD-10 column). To check for the completeness of inhibition an excess of cysteine was added to a PBS solution of the inhibited papain and incubated for 45 minutes. […] This solution was then re-irradiated with 350 nm fluorescent lamps for 15 minutes.
Alternatively, re-activation of papain was achieved without isolation of inhibited enzyme. Ethyl vinyl ether derivative, 2-(2-(vinyloxy)ethoxy)ethanol, was added to a photolysate containing inhibited papain, NQMP-TEG, and cysteine in PBS solution. The amount of vinyl ether added was equal to the initial amount of NQMP-TEG.

[5] = Cysteine specificity of NQMP photo-click reaction, peptides lacking free cysteine; details: irradiation of peptides 6 and 7 with 4 to 12 equivalents of NQMP-TEG, HPLC analysis
Method: To test the cysteine specificity of NQMP photo-click reaction, two analogs of peptide 4 containing the same amino acid sequence but lacking free cysteine were prepared. In nonapeptide 6 cysteine residue was replaced with methionine, while the thiol group in 4 was converted into disulfide bond by oxidative dimerization to form oligopeptide 7. […] These experiments show the high specificity of addition of photochemically generated oNQM to cysteine thiol group.
0.1 mM PBS solutions of peptides 4, 6, and 7 were irradiated with 300 or 350 nm fluorescent lamps in the presence of variable amounts of NQMP-TEG (2c, 0.1-0.4 mM). Composition of the photolysates was analyzed using HPLC (FIG. 17). Peptide 4-NQMP-TEG conjugate (5) was isolated using semi-prep C-18 HPLC column and characterized by ESI-HRMS (FIG. 18). The concentration of labeled peptide 5 was determined by UV spectroscopy using characteristic 330 nm band of NQMP chromophore. This solution was then used in calibration of HPLC instruments.

For “Ac-Cys-Lys-Tyr-Trp-Gly-Arg-Asp-Ser-NH2 (Ac-CKYWGRDS-NH2) [compound 4]”, the “Photochemical stability (decomposition or losses by HPLC)” value [1] was “No decomposition or losses of materials were detected”.

For `OCc1cc2cccc(O)c2cc1O` [1b, 6-(hydroxymethyl)naphthalene-1,7-diol], the Aqueous solubility [2] was “rather low aqueous solubility”.

In the case of `OCc1cc2ccccc2cc1O` [1a, 3-hydroxy-2-naphthalenemethanol], the Aqueous solubility [2] is reported as “rather low aqueous solubility”.

In the case of “8-TEG-3-(hydroxymethyl)naphthalen-2-ol [NQMP-TEG]”, the Relative activity ([3]; 100 μM NQMP-TEG, 1.7 μM papain, 80 μM cysteine, 2 minutes irradiation at 350 nm, 800 μM BAPNA) is reported as 65%, the Relative activity ([3]; 109 μM NQMP-TEG, 0.91 μM papain, 44 μM cysteine, 2 minutes irradiation at 350 nm, 200 μM BAPNA) is reported as 52% and the Relative activity ([3]; 109 μM NQMP-TEG, 0.91 μM papain, 44 μM cysteine, 3 minutes irradiation at 350 nm, 200 μM BAPNA) is reported as 27%. It also gave a Relative activity ([3]; 109 μM NQMP-TEG, 0.91 μM papain, 44 μM cysteine, 4 minutes irradiation at 350 nm, 200 μM BAPNA) of 0%, a Relative activity ([3]; 109 μM NQMP-TEG, 0.91 μM papain, 44 μM cysteine, irradiation time 0 minutes, 200 μM BAPNA) of 100% and a Relative activity ([3]; 150 μM NQMP-TEG, 1.7 μM papain, 80 μM cysteine, 2 minutes irradiation at 350 nm, 800 μM BAPNA) of 48%. For the same molecule, the Relative activity ([3]; 200 μM NQMP-TEG, 1.7 μM papain, 80 μM cysteine, 2 minutes irradiation at 350 nm, 800 μM BAPNA) was 43%, the Relative activity ([3]; 250 μM NQMP-TEG, 1.7 μM papain, 80 μM cysteine, 2 minutes irradiation at 350 nm, 800 μM BAPNA) was 27% and the Relative activity ([3]; 300 μM NQMP-TEG, 1.7 μM papain, 80 μM cysteine, 2 minutes irradiation at 350 nm, 800 μM BAPNA) was 17%. For the same molecule, the Relative activity ([3]; 400 μM NQMP-TEG, 1.7 μM papain, 80 μM cysteine, 2 minutes irradiation at 350 nm, 800 μM BAPNA) was 0%, the “Concentration required to completely inhibit the activity of Papain” value ([3]; 2 minutes of irradiation at 350 nm, 1.7 μM papain, 80 μM cysteine) was “about 350 μM” and the “Papain Activity” value ([4]; 350 nm irradiation 0 minutes) was 0%. The “Papain Activity” value ([4]; 350 nm irradiation 3 minutes) was 28%, the “Papain Activity” value ([4]; 350 nm irradiation 4 minutes) was 40% and the “Papain Activity” value ([4]; 350 nm irradiation 5 minutes) was 47%. For the same molecule, the “Papain Activity” value ([4]; 350 nm irradiation 7 minutes) was 58%, the “Papain Activity” value ([4]; 350 nm irradiation 8 minutes) was 76% and the “Photochemical stability (decomposition or losses by HPLC)” value [1] was “No decomposition or losses of materials were detected”. The “Labeling of peptides lacking free cysteine (selectivity)” value [5] was “produced no labeled products” and the Aqueous solubility [2] was “freely soluble in wholly aqueous solutions up to millimolar concentrations”.

B1: inhibited papain: papain deactivated by irradiation with NQMP-TEG; a single NQMP-TEG unit added as thioether (conjugate, UniProt P00784 134-345, looked up)
Papain: T1 sequence (P00784 134-345)
modifications: NQMP-TEG thioether adduct, inactivated
For B1, the “Protease activity (L-BAPNA cleavage) after incubation with excess cysteine” value ([4]; gel-filtered inhibited papain in PBS, excess of cysteine, 45 minutes, no re-irradiation) was “does not cleave L-BAPNA” and the “Restoration of papain activity relative to wild type papain” value ([4]; gel-filtered inhibited papain, no NQMP reagent, re-irradiated with 350 nm lamps for 15 minutes) was 85-92%.
